Source: patent US9695155B2, “Herbicidal substituted pyrimidinyloxy benzene compounds” (E. I. DU PONT DE NEMOURS AND COMPANY, priority 2013, dated 2017)

Tests used:
wheat, winter = assay: Test C preemergence; type: in vivo, Triticum aestivum; details: for Wheat plant response rating: preemergence; for Plant response rating, Wheat: Preemergence, 31 g ai/ha, scale 0 to 100, 0 no effect, 100 complete control
Method in brief: (§1)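 Plants were kept under greenhouse conditions for 13–15 days following spray. Pre-emergent application went to soil (loam–sand), post-emergent to foliage at 1–4 leaves. Evaluation: visual, percent control against untreated checks.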

ragweed = assay: Test C postemergence; type: in vivo, Ambrosia elatior; details: for Plant response rating, Ragweed: scale 0 to 100 (0 no effect, 100 complete control)
Method in brief: as §1

wheat = assay: Test A postemergence; type: in vivo, Triticum aestivum
Method in brief: (§2)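 Visual 0–100 rating (100 = complete control) taken about 10 d post-treatment relative to untreated checks. Preemergence: directed soil spray on sown loam/sand pots. Postemergence: seedlings 2–10 cm, 1–2 leaf. Non-phytotoxic solvent formulation with surfactant.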

rice = assay: Test B flooded paddy test; type: in vivo, Oryza sativa; details: Flood, 250 g ai/ha; 0 to 100 scale where 0 is no effect and 100 is complete control
Method in brief: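 Evaluation is visual, against untreated controls, 13 to 15 days after treatment. Before treatment, plants reached the 2-leaf stage; pots were then flooded 3 cm deep, compound was added to the water, and that level was maintained. Ratings run 0 to 100, with 100 meaning complete control.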

large (Lg) crabgrass = assay: Test C preemergence; type: in vivo, Digitaria sanguinalis; details: for Crabgrass, Large plant response rating: preemergence; for Plant response rating, Crabgrass, Large: Preemergence, 31 g ai/ha, scale 0 to 100, 0 no effect, 100 complete control
Method in brief: as §1

soybean [1] = assay: Test C postemergence; type: in vivo, Glycine max; details: for Plant response rating, Soybean: scale 0 to 100 (0 no effect, 100 complete control)
Method in brief: as §1

barnyardgrass [2] = assay: Test C preemergence; type: in vivo, Echinochloa crus-galli; details: for Barnyardgrass plant response rating: preemergence; for Plant response rating, Barnyardgrass: Preemergence, 31 g ai/ha, scale 0 to 100, 0 no effect, 100 complete control
Method in brief: as §1

barnyardgrass [3] = assay: Test A preemergence; type: in vivo, Echinochloa crus-galli; details: for Barnyardgrass plant response rating: 500 g ai/ha, approx. 10 days
Method in brief: as §2

blackgrass [4] = assay: Test C preemergence; type: in vivo, Alopecurus myosuroides; details: for Blackgrass plant response rating: preemergence; for Plant response rating, Blackgrass: Preemergence, 31 g ai/ha, scale 0 to 100, 0 no effect, 100 complete control
Method in brief: as §1

oilseed rape = assay: Test C postemergence; type: in vivo, Brassica napus; details: for Plant response rating, Oilseed Rape: scale 0 to 100 (0 no effect, 100 complete control)
Method in brief: as §1

blackgrass [5] = assay: Test C postemergence; type: in vivo, Alopecurus myosuroides; details: for Blackgrass plant response rating / Plant response rating, Blackgrass: scale 0 to 100 (0 no effect, 100 complete control)
Method in brief: as §1

soybean [6] = assay: Test C preemergence; type: in vivo, Glycine max; details: for Soybean plant response rating: preemergence; for Plant response rating, Soybean: Preemergence, 31 g ai/ha, scale 0 to 100, 0 no effect, 100 complete control
Method in brief: as §1

giant foxtail = assay: Test C postemergence; type: in vivo, Setaria faberii; details: for Foxtail, Giant plant response rating / Plant response rating, Foxtail, Giant: scale 0 to 100 (0 no effect, 100 complete control)
Method in brief: as §1

morningglory = assay: Test A postemergence; type: in vivo, Ipomoea spp.
Method in brief: as §2

[7] = 16 g ai/ha, scale 0 to 100 (0 no effect, 100 complete control)
[8] = 62 g ai/ha, scale 0 (no effect) to 100 (complete control)
[9] = 125 g ai/ha, scale 0 (no effect) to 100 (complete control)
[10] = Postemergence, 31 g ai/ha, 13 to 15 days
[11] = 125 g ai/ha, 0 to 100 scale where 0 is no effect and 100 is complete control
[12] = 500 g ai/ha, 0 to 100 scale where 0 is no effect and 100 is complete control
[13] = 0 to 100 scale, 0 no effect, 100 complete control
[14] = 16 g ai/ha, postemergence, visual rating, 13 to 15 days
[15] = 125 g ai/ha, postemergence, visual rating
[16] = 16 g ai/ha, postemergence, 0 is no effect, 100 is complete control
[17] = 1000 g ai/ha, 0 to 100 scale, 0 no effect, 100 complete control

Compound: CCOc1cnn(-c2c(C#N)cccc2Oc2ncc(Cl)cn2)c1 [Compound 92]
- Wheat plant response rating (wheat, winter; [7]): 0
- Wheat plant response rating (wheat, winter; [8]): 30
- Wheat plant response rating (wheat, winter; [9]): 80
- Plant response rating, Wheat (wheat, winter): 0
- Plant response rating (0 to 100), Ragweed (ragweed; 125 g ai/ha, postemergence): 55
- Plant response rating, Ragweed (ragweed; [10]): 40
- Plant response rating, Ragweed (ragweed; Postemergence, 62 g ai/ha): 50
- Plant response rating, Wheat (wheat; [11]): 60
- Plant response rating, Wheat (wheat; [12]): 70
- Plant response rating, Rice (rice): 20
- Crabgrass, Large plant response rating (large (Lg) crabgrass; [7]): 90
- Crabgrass, Large plant response rating (large (Lg) crabgrass; [8]): 100
- Crabgrass, Large plant response rating (large (Lg) crabgrass; [9]): 100
- Plant response rating, Crabgrass, Large (large (Lg) crabgrass): 100
- Plant response rating (0 to 100), Soybean (soybean [1]; 125 g ai/ha, postemergence): 95
- Plant response rating, Soybean (soybean [1]; [10]): 70
- Plant response rating, Soybean (soybean [1]; Postemergence, 62 g ai/ha): 90
- Barnyardgrass plant response rating (barnyardgrass [2]; [7]): 5
- Barnyardgrass plant response rating (barnyardgrass [2]; [8]): 100
- Barnyardgrass plant response rating (barnyardgrass [2]; [9]): 100
- Plant response rating, Barnyardgrass (barnyardgrass [2]): 75
- Plant response rating, Barnyardgrass (barnyardgrass [3]; [11]): 60
- Barnyardgrass plant response rating (barnyardgrass [3]; [13]): 100
- Blackgrass plant response rating (blackgrass [4]; [7]): 0
- Blackgrass plant response rating (blackgrass [4]; [8]): 70
- Blackgrass plant response rating (blackgrass [4]; [9]): 90
- Plant response rating, Blackgrass (blackgrass [4]): 5
- Plant response rating (0 to 100), Oilseed Rape (oilseed rape; 125 g ai/ha, postemergence): 70
- Plant response rating, Oilseed Rape (oilseed rape; [10]): 45
- Plant response rating, Oilseed Rape (oilseed rape; Postemergence, 62 g ai/ha): 60
- Blackgrass plant response rating (blackgrass [5]; [14]): 0
- Plant response rating (0 to 100), Blackgrass (blackgrass [5]; 125 g ai/ha, postemergence): 35
- Plant response rating, Blackgrass (blackgrass [5]; [10]): 0
- Plant response rating, Blackgrass (blackgrass [5]; Postemergence, 62 g ai/ha): 10
- Soybean plant response rating (soybean [6]; [7]): 30
- Soybean plant response rating (soybean [6]; [8]): 80
- Soybean plant response rating (soybean [6]; [9]): 95
- Plant response rating, Soybean (soybean [6]): 65
- Foxtail, Giant plant response rating (giant foxtail; [14]): 5
- Plant response rating (0 to 100), Foxtail, Giant (giant foxtail; 125 g ai/ha, postemergence): 10
- Plant response rating, Foxtail, Giant (giant foxtail; [10]): 5
- Plant response rating, Foxtail, Giant (giant foxtail; Postemergence, 62 g ai/ha): 5
- Plant response rating, Morningglory (morningglory; [11]): 100
- Plant response rating, Morningglory (morningglory; [12]): 100

Compound: N#Cc1cnn(-c2c(C#N)cccc2Oc2ncc(F)cn2)c1 [Compound 111]
- Wheat plant response rating (wheat, winter; [7]): 0
- Wheat plant response rating (wheat, winter; [8]): 0
- Wheat plant response rating (wheat, winter; [9]): 20
- Plant response rating, Wheat (wheat, winter): 30
- Plant response rating, Ragweed (ragweed; [15]): 90
- Plant response rating, Ragweed (ragweed; Postemergence, 62 g ai/ha): 70
- Plant response rating, Wheat (wheat; [12]): 80
- Plant response rating, Rice (rice): 0
- Crabgrass, Large plant response rating (large (Lg) crabgrass; [7]): 98
- Crabgrass, Large plant response rating (large (Lg) crabgrass; [8]): 100
- Crabgrass, Large plant response rating (large (Lg) crabgrass; [9]): 100
- Plant response rating, Crabgrass, Large (large (Lg) crabgrass): 100
- Plant response rating, Soybean (soybean [1]; [15]): 95
- Plant response rating, Soybean (soybean [1]; Postemergence, 62 g ai/ha): 80
- Barnyardgrass plant response rating (barnyardgrass [2]; [7]): 5
- Barnyardgrass plant response rating (barnyardgrass [2]; [8]): 90
- Barnyardgrass plant response rating (barnyardgrass [2]; [9]): 100
- Plant response rating, Barnyardgrass (barnyardgrass [2]): 55
- Plant response rating, Barnyardgrass (barnyardgrass [3]; [11]): 90
- Barnyardgrass plant response rating (barnyardgrass [3]; [13]): 100
- Blackgrass plant response rating (blackgrass [4]; [7]): 20
- Blackgrass plant response rating (blackgrass [4]; [8]): 40
- Blackgrass plant response rating (blackgrass [4]; [9]): 90
- Plant response rating, Blackgrass (blackgrass [4]): 10
- Plant response rating, Oilseed Rape (oilseed rape; [15]): 80
- Plant response rating, Oilseed Rape (oilseed rape; Postemergence, 62 g ai/ha): 60
- Blackgrass plant response rating (blackgrass [5]; [14]): 0
- Plant response rating, Blackgrass (blackgrass [5]; [15]): 10
- Plant response rating, Blackgrass (blackgrass [5]; [10]): 0
- Plant response rating, Blackgrass (blackgrass [5]; Postemergence, 62 g ai/ha): 5
- Soybean plant response rating (soybean [6]; [7]): 30
- Soybean plant response rating (soybean [6]; [8]): 80
- Soybean plant response rating (soybean [6]; [9]): 95
- Plant response rating, Soybean (soybean [6]): 60
- Foxtail, Giant plant response rating (giant foxtail; [14]): 20
- Plant response rating, Foxtail, Giant (giant foxtail; [15]): 65
- Plant response rating, Foxtail, Giant (giant foxtail; Postemergence, 62 g ai/ha): 35
- Plant response rating, Morningglory (morningglory; [12]): 90

Compound: N#Cc1cn(-c2c(Br)cccc2Oc2ncc(Cl)cn2)nn1 [Compound 116]
- Wheat plant response rating (wheat, winter; [7]): 0
- Wheat plant response rating (wheat, winter; [8]): 0
- Wheat plant response rating (wheat, winter; [9]): 5
- Plant response rating, Wheat (wheat, winter): 0
- Plant response rating (0 to 100), Ragweed (ragweed; [16]): 5
- Plant response rating, Ragweed (ragweed; [15]): 70
- Plant response rating, Ragweed (ragweed; Postemergence, 62 g ai/ha): 25
- Plant response rating, Wheat (wheat; [17]): 50
- Plant response rating, Rice (rice): 0
- Crabgrass, Large plant response rating (large (Lg) crabgrass; [7]): 5
- Crabgrass, Large plant response rating (large (Lg) crabgrass; [8]): 100
- Crabgrass, Large plant response rating (large (Lg) crabgrass; [9]): 100
- Plant response rating, Crabgrass, Large (large (Lg) crabgrass): 100
- Plant response rating (0 to 100), Soybean (soybean [1]; [16]): 15
- Plant response rating, Soybean (soybean [1]; [15]): 95
- Plant response rating, Soybean (soybean [1]; Postemergence, 62 g ai/ha): 60
- Barnyardgrass plant response rating (barnyardgrass [2]; [7]): 0
- Barnyardgrass plant response rating (barnyardgrass [2]; [8]): 45
- Barnyardgrass plant response rating (barnyardgrass [2]; [9]): 70
- Plant response rating, Barnyardgrass (barnyardgrass [2]): 25
- Plant response rating, Barnyardgrass (barnyardgrass [3]; [17]): 90
- Blackgrass plant response rating (blackgrass [4]; [7]): 0
- Blackgrass plant response rating (blackgrass [4]; [8]): 60
- Blackgrass plant response rating (blackgrass [4]; [9]): 85
- Plant response rating, Blackgrass (blackgrass [4]): 10
- Plant response rating (0 to 100), Oilseed Rape (oilseed rape; [16]): 5
- Plant response rating, Oilseed Rape (oilseed rape; [15]): 40
- Plant response rating, Oilseed Rape (oilseed rape; Postemergence, 62 g ai/ha): 10
- Plant response rating (0 to 100), Blackgrass (blackgrass [5]; [16]): 0
- Plant response rating, Blackgrass (blackgrass [5]; [15]): 25
- Plant response rating, Blackgrass (blackgrass [5]; [10]): 5
- Plant response rating, Blackgrass (blackgrass [5]; Postemergence, 62 g ai/ha): 10
- Soybean plant response rating (soybean [6]; [7]): 0
- Soybean plant response rating (soybean [6]; [8]): 40
- Soybean plant response rating (soybean [6]; [9]): 70
- Plant response rating, Soybean (soybean [6]): 25
- Plant response rating (0 to 100), Foxtail, Giant (giant foxtail; [16]): 30
- Plant response rating, Foxtail, Giant (giant foxtail; [15]): 10
- Plant response rating, Foxtail, Giant (giant foxtail; Postemergence, 62 g ai/ha): 40
- Plant response rating, Morningglory (morningglory; [17]): 100
